# ChEMBL document CHEMBL3045493, “Synthesis and antifungal activity of novel 2,5-disubstituted-1,3,4-oxadiazoles containing benzimidazole moiety” (J Pestic Sci, 2012)
# Columns and labels:
# Sclerotinia sclerotiorum = test: Antifungal activity against benzimidazole-sensitive Sclerotinia sclerotiorum SS-JSZ01 assessed as inhibition of mycelium growth after 3 days followed by 96 hr incubation in light incubator; type: functional, organism-based
# Botrytis cinerea = test: Antifungal activity against benzimidazole moderately resistant Botryotinia fuckeliana BC-JfC02 assessed as inhibition of mycelium growth after 3 days followed by 96 hr incubation in light incubator; type: functional, organism-based
Compound,EC50 (Sclerotinia sclerotiorum) [µg/mL],EC50 (Botrytis cinerea) [µg/mL]
COC(=O)Nc1nc2ccccc2[nH]1 [CARBENDAZIM],0.13,7.4
Fc1ccc(Cn2c(-c3nnc(SCc4ccc(Cl)cc4)o3)nc3ccccc32)cc1,0.43,6.07
CCSc1nnc(-c2nc3ccccc3[nH]2)o1,1.31,2.7
CCCCSc1nnc(-c2nc3ccccc3[nH]2)o1,9.12,9.86
CSc1nnc(-c2nc3ccccc3[nH]2)o1,2.04,10.6
CC(C)Sc1nnc(-c2nc3ccccc3[nH]2)o1,23.4,24.1
CSc1nnc(-c2nc3ccccc3n2Cc2ccc(F)cc2)o1,12.4,14
Clc1ccc(CSc2nnc(-c3nc4ccccc4[nH]3)o2)c(Cl)c1,22.7,16.4
CC(C)Sc1nnc(-c2nc3ccccc3n2Cc2ccc(F)cc2)o1,10.2,11.4
Fc1ccc(CSc2nnc(-c3nc4ccccc4[nH]3)o2)cc1,20.5,12.8
CCSc1nnc(-c2nc3ccccc3n2Cc2ccc(F)cc2)o1,8.86,3.08
CCCCSc1nnc(-c2nc3ccccc3n2Cc2ccc(F)cc2)o1,0.94,6.26
Fc1ccc(Cn2c(-c3nnc(SCc4ccccc4)o3)nc3ccccc32)cc1,0.04,1.31
CCCSc1nnc(-c2nc3ccccc3n2Cc2ccc(F)cc2)o1,2.03,5.63
Clc1ccc(CSc2nnc(-c3nc4ccccc4[nH]3)o2)cc1,9.1,14.8
CCCSc1nnc(-c2nc3ccccc3[nH]2)o1,18.2,16.6
Fc1ccc(CSc2nnc(-c3nc4ccccc4n3Cc3ccc(F)cc3)o2)cc1,7.52,13.9
c1ccc(CSc2nnc(-c3nc4ccccc4[nH]3)o2)cc1,22.9,18.4
Fc1ccc(Cn2c(-c3nnc(SCc4ccc(Cl)cc4Cl)o3)nc3ccccc32)cc1,0.55,7.81
